These cell lines were tested with CN1CCN(CC1)C2=CC(=C(C=C2)NC3=NC=C4C(=N3)N(C5=CC=CC=C5C(=O)N4C)C)OC [XMD8-85] + NC(=O)Nc1cc(-c2cccc(F)c2)sc1C(=O)N[C@H]1CCCNC1 [AZD7762] (partner 0.2 µM) (assay: relative viability (nuclei count vs DMSO), 5 days (fraction); higher = more cells survive). Conditions: first compound 0.08 µM.
How it was run: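 One day after seeding in 1536-well plates, lung cancer cell lines were dosed by pin tool. Dosing was either single-drug or a fixed anchor-drug dose plus five library-drug doses (not always all listed) in √10 steps. After 5 days, nuclei were stained in one fix-and-stain step and counted on 4× images, and relative viability is the nuclei count of treated wells over that of vehicle wells, given as the median of duplicate plates.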

Row | Cell Line | relative viability
1 | EPLC-272H | 0.209
2 | H3255 | 0.979
3 | HARA | 0.314
4 | HCC-15 | 1.16
5 | HCC-44 | 1.05
6 | HCC-78 | 0.556
7 | HCC-366 | 0.216
8 | HCC-827 | 0.23
9 | HOP-62 | 0.497
10 | LC-2-ad | 0.808
11 | LCLC-97TM1 | 0.207
12 | LCLC-103H | 0.769
13 | LK-2 | 0.288
14 | LOU-NH91 | 0.678
15 | LU99A | 0.328
16 | LXF-289 | 1.09
17 | NCI-H23 | 0.173
18 | NCI-H322M | 0.566
19 | NCI-H358 | 0.446
20 | NCI-H441 | 1.21
21 | NCI-H460 | 0.624
22 | NCI-H596 | 1.18
23 | NCI-H647 | 0.306
24 | NCI-H650 | 0.92
25 | NCI-H1703 | 0.107
26 | SW 900 | 0.555

Same assay, conditions: first compound 0.253 µM

Row | Cell Line | relative viability
27 | 201T | 0.651
28 | A-427 | 0.81
29 | ABC-1 | 0.805
30 | BEN | 0.661
31 | CAL-12T | 0.642
32 | EKVX | 0.742
33 | EMC-BAC-2 | 1.03
34 | EPLC-272H | 0.16
35 | H3255 | 0.868
36 | HARA | 0.269
37 | HCC-15 | 1.06
38 | HCC-44 | 1.06
39 | HCC-78 | 0.582
40 | HCC-366 | 0.311
41 | HCC-827 | 0.185
42 | HOP-62 | 0.708
43 | LC-2-ad | 0.837

Row | Cell Line | relative viability
44 | LCLC-97TM1 | 0.171
45 | LCLC-103H | 0.825
46 | LK-2 | 0.334
47 | LOU-NH91 | 0.763
48 | LU99A | 0.504
49 | LXF-289 | 1.16
50 | NCI-H23 | 0.287
51 | NCI-H322M | 0.606
52 | NCI-H358 | 0.497
53 | NCI-H441 | 1.01
54 | NCI-H460 | 0.643
55 | NCI-H596 | 0.944
56 | NCI-H647 | 0.371
57 | NCI-H650 | 0.991
58 | NCI-H1703 | 0.147
59 | SW 900 | 0.669

Same assay, conditions: first compound 0.8 µM

Row | Cell Line | relative viability
60 | 201T | 0.669
61 | A-427 | 0.675
62 | ABC-1 | 0.799
63 | BEN | 0.691
64 | CAL-12T | 0.604
65 | EKVX | 0.67
66 | EMC-BAC-2 | 1.04
67 | EPLC-272H | 0.362
68 | H3255 | 0.894
69 | HARA | 0.303
70 | HCC-15 | 1.13
71 | HCC-44 | 1
72 | HCC-78 | 0.728
73 | HCC-366 | 0.335
74 | HCC-827 | 0.231
75 | HOP-62 | 0.523
76 | LC-2-ad | 0.895
77 | LCLC-97TM1 | 0.304
78 | LCLC-103H | 0.811
